Results: ChEMBL document CHEMBL3832086, “DailyMed|setid=1c5502c7-7731-4d3e-b4fe-7fd44dd5908b | UROXATRAL - alfuzosin hydrochloride tablet, extended release|Physicians Total Care, Inc”

Legend:
[1] = Evaluation of absolute bioavailability of Alfuzosin hydrochloride following oral administration of 10 mg Alfuzosin hydrochloride tablets under fed conditions.; format: ADME, organism-based; conditions: human, in vivo, at 10 mg, dietary status Fed, dosed compound id 46, dosed compound name ALFUZOSIN HYDROCHLORIDE, regimen Single dose, tissue Plasma
[2] = Evaluation of pharmacokinetic parameters for Alfuzosin hydrochloride following multiple oral or intravenous administration of Alfuzosin hydrochloride.; format: ADME, organism-based; design: dose 10 mg, route oral; conditions: human, in vivo, dosed compound id 46, dosed compound name ALFUZOSIN HYDROCHLORIDE, regimen Multiple dose, tissue Plasma

COc1cc2nc(N(C)CCCNC(=O)C3CCCO3)nc(N)c2cc1OC.Cl (stereo unspecified) [ALFUZOSIN HYDROCHLORIDE]
bioavailability [1]: 49%
Cmax ([2]; po, 10 mg, dietary status Fed): 13.6 ng/mL
AUC ([2]; po, 10 mg, dietary status Fed, read-out: AUC(0-24)): 194 ng·h/mL
Tmax ([2]; dietary status Fed, dose 10 mg, route oral): 8 h
half-life ([2]; dose 10 mg, route oral): 10 h
Vd ([2]; gender male, route iv): 3.2 L/kg
